Reference: patent publication US10499642B2, “Isoxazoline-substituted benzamides and analogues as insecticides” (SYNGENTA PARTICIPATIONS AG, priority 2015, dated 2019)

Assays:
Assay type in all cases: in vivo
Spodoptera littoralis = Spodoptera littoralis (Egyptian cotton leaf worm) cotton leaf disc test; details: foliar, 72 h, read-out: control (at least one of mortality, anti-feedant effect, and growth inhibition)
Outline: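 Five first-instar larvae per disc were placed on dried, sprayed cotton leaf discs held on agar. Test solutions were aqueous, made from 10′000 ppm DMSO stocks. At day 3, control was counted when mortality, feeding deterrence or growth inhibition exceeded the untreated discs.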

Plutella xylostella = Plutella xylostella (diamond back moth) artificial diet test; details: 120 h, read-out: effect in at least one of the two categories (mortality or growth inhibition)
Outline: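 At a 200 ppm rate, test solutions were applied to artificial diet and allowed to dry before second-instar larvae were added. Five days later, larval mortality and growth inhibition were rated against untreated samples.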

Diabrotica Balteata = test: Diabrotica balteata (corn root worm) maize sprout test; details: 96 h, read-out: effect in at least one of the two categories (mortality or growth inhibition)
Outline: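 Scoring covered both mortality and growth inhibition relative to untreated controls, 4 days post-infestation. Test solutions at 200 ppm, diluted in water from 10′000 ppm DMSO stocks, were sprayed onto agar-held maize sprouts, which after drying received 6 to 10 L2 larvae each well.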

Thrips tabaci = Thrips tabaci (onion thrips) sunflower leaf disc test; details: foliar, 144 h
Description: Thrips tabaci (Onion Thrips):
(§1) Sunflower leaf discs were placed on agar in 24-well microtiter plates and sprayed with aqueous test solutions prepared from 10′000 ppm DMSO stock solutions. After drying the leaf discs were infested with a thrips population of mixed ages. The samples were assessed for mortality 6 days after infestation.

Tetranychus urticae = Tetranychus urticae (two-spotted spider mite) bean leaf disc test; details: foliar, 192 h
Description: Tetranychus urticae (Two-Spotted Spider Mite):
as §1, with “Bean” for “Sunflower”, “discs” for “discs were placed”, “were” for “and”, “mite” for “thrips”, “on mixed population (mobile stages) 8” for “6”

Myzus persicae = Myzus persicae (green peach aphid) sunflower leaf disc test; details: foliar, 144 h
Description: Myzus persicae (Green Peach Aphid):
Sunflower leaf discs were placed on agar in a 24-well microtiter plate and sprayed with test solutions at an application rate of 200 ppm. After drying, the leaf discs were infested with an aphid population of mixed ages. After an incubation period of 6 days after treatment, samples were checked for mortality. The following compounds gave at least 80% mortality of Myzus persicae: […]

Cc1cc(C2=NO[C@@](c3cc(Cl)c(F)c(Cl)c3)(C(F)(F)F)C2)ccc1C(=O)NC1CC=NO1 (stereo partly drawn) [Compound A091]
≥ 80%: percent control (mortality, anti-feedant effect or growth inhibition) at 200 ppm (Spodoptera littoralis) | percent effect (mortality or growth inhibition) at 200 ppm (Plutella xylostella) | percent effect (mortality or growth inhibition) at 200 ppm (Diabrotica Balteata) | mortality at 200 ppm (Thrips tabaci) | mortality at 200 ppm (Tetranychus urticae) | mortality at 200 ppm (Myzus persicae)

Cc1cc(C2=NO[C@@](c3cc(Cl)c(F)c(Cl)c3)(C(F)(F)F)C2)ccc1C(=O)NC1CC(C=O)=NO1 (stereo partly drawn) [Compound A099]
≥ 80%: percent control (mortality, anti-feedant effect or growth inhibition) at 200 ppm (Spodoptera littoralis) | percent effect (mortality or growth inhibition) at 200 ppm (Plutella xylostella) | percent effect (mortality or growth inhibition) at 200 ppm (Diabrotica Balteata) | mortality at 200 ppm (Thrips tabaci) | mortality at 200 ppm (Tetranychus urticae) | mortality at 200 ppm (Myzus persicae)

C=C(Cl)COC1=NOC(NC(=O)c2ccc(C3=NO[C@@](c4cc(Cl)c(F)c(Cl)c4)(C(F)(F)F)C3)cc2C)C1 (stereo partly drawn) [Compound A100, N-[3-(2-chloroallyloxy)-4,5-dihydroisoxazol-5-yl]-4-[(5S)-5-(3,5-dichloro-4-fluoro-phenyl)-5-(trifluoromethyl)-4H-isoxazol-3-yl]-2-methyl-benzamide]
≥ 80%: percent control (mortality, anti-feedant effect or growth inhibition) at 200 ppm (Spodoptera littoralis) | percent effect (mortality or growth inhibition) at 200 ppm (Plutella xylostella) | percent effect (mortality or growth inhibition) at 200 ppm (Diabrotica Balteata) | mortality at 200 ppm (Thrips tabaci) | mortality at 200 ppm (Tetranychus urticae) | mortality at 200 ppm (Myzus persicae)

Cc1cc(C2=NO[C@@](c3cc(Cl)c(F)c(Cl)c3)(C(F)(F)F)C2)ccc1C(=O)NC1CC(OCC(F)(F)C(F)F)=NO1 (stereo partly drawn) [Compound A101]
≥ 80%: percent control (mortality, anti-feedant effect or growth inhibition) at 200 ppm (Spodoptera littoralis) | percent effect (mortality or growth inhibition) at 200 ppm (Plutella xylostella) | percent effect (mortality or growth inhibition) at 200 ppm (Diabrotica Balteata) | mortality at 200 ppm (Thrips tabaci) | mortality at 200 ppm (Tetranychus urticae) | mortality at 200 ppm (Myzus persicae)

Cc1cc(C2=NO[C@@](c3cc(Cl)c(F)c(Cl)c3)(C(F)(F)F)C2)ccc1C(=O)NC1CC(OCC(F)(F)C(F)(F)F)=NO1 (stereo partly drawn) [Compound A102]
≥ 80%: percent control (mortality, anti-feedant effect or growth inhibition) at 200 ppm (Spodoptera littoralis) | percent effect (mortality or growth inhibition) at 200 ppm (Plutella xylostella) | percent effect (mortality or growth inhibition) at 200 ppm (Diabrotica Balteata) | mortality at 200 ppm (Thrips tabaci) | mortality at 200 ppm (Tetranychus urticae) | mortality at 200 ppm (Myzus persicae)

Cc1cc(C2=NO[C@@](c3cc(Cl)c(F)c(Cl)c3)(C(F)(F)F)C2)ccc1C(=O)NC1CC(OCC(F)(F)F)=NO1 (stereo partly drawn) [Compound A103]
≥ 80%: percent control (mortality, anti-feedant effect or growth inhibition) at 200 ppm (Spodoptera littoralis) | percent effect (mortality or growth inhibition) at 200 ppm (Plutella xylostella) | percent effect (mortality or growth inhibition) at 200 ppm (Diabrotica Balteata) | mortality at 200 ppm (Thrips tabaci) | mortality at 200 ppm (Tetranychus urticae) | mortality at 200 ppm (Myzus persicae)

CCCCOC1=NOC(NC(=O)c2ccc(C3=NO[C@@](c4cc(Cl)c(F)c(Cl)c4)(C(F)(F)F)C3)cc2C)C1 (stereo partly drawn) [Compound A104]
≥ 80%: percent control (mortality, anti-feedant effect or growth inhibition) at 200 ppm (Spodoptera littoralis) | percent effect (mortality or growth inhibition) at 200 ppm (Plutella xylostella) | percent effect (mortality or growth inhibition) at 200 ppm (Diabrotica Balteata) | mortality at 200 ppm (Thrips tabaci) | mortality at 200 ppm (Tetranychus urticae) | mortality at 200 ppm (Myzus persicae)

Cc1cc(C2=NO[C@@](c3cc(Cl)c(F)c(Cl)c3)(C(F)(F)F)C2)ccc1C(=O)NC1CC(N(C)C)=NO1 (stereo partly drawn) [Compound A105, 4-[(5S)-5-(3,5-dichloro-4-fluoro-phenyl)-5-(trifluoromethyl)-4H-isoxazol-3-yl]-N-[3-(dimethylamino)-4,5-dihydroisoxazol-5-yl]-2-methyl-benzamide]
≥ 80%: percent control (mortality, anti-feedant effect or growth inhibition) at 200 ppm (Spodoptera littoralis) | percent effect (mortality or growth inhibition) at 200 ppm (Plutella xylostella) | percent effect (mortality or growth inhibition) at 200 ppm (Diabrotica Balteata) | mortality at 200 ppm (Thrips tabaci) | mortality at 200 ppm (Tetranychus urticae) | mortality at 200 ppm (Myzus persicae)

Cc1cc(C2=NO[C@@](c3cc(Cl)c(Cl)c(Cl)c3)(C(F)(F)F)C2)ccc1C(=O)NC1CC(OCCC(C)C)=NO1 (stereo partly drawn) [Compound A106, N-(3-isopentyloxy-4,5-dihydroisoxazol-5-yl)-2-methyl-4-[(5S)-5-(3,4,5-trichlorophenyl)-5-(trifluoromethyl)-4H-isoxazol-3-yl]benzamide]
≥ 80%: percent control (mortality, anti-feedant effect or growth inhibition) at 200 ppm (Spodoptera littoralis) | percent effect (mortality or growth inhibition) at 200 ppm (Plutella xylostella) | percent effect (mortality or growth inhibition) at 200 ppm (Diabrotica Balteata) | mortality at 200 ppm (Thrips tabaci) | mortality at 200 ppm (Tetranychus urticae) | mortality at 200 ppm (Myzus persicae)

CCOCCOC1=NOC(NC(=O)c2ccc(C3=NO[C@@](c4cc(Cl)c(Cl)c(Cl)c4)(C(F)(F)F)C3)cc2C)C1 (stereo partly drawn) [Compound A107, N-[3-(2-ethoxyethoxy)-4,5-dihydroisoxazol-5-yl]-2-methyl-4-[(5S)-5-(3,4,5-trichlorophenyl)-5-(trifluoromethyl)-4H-isoxazol-3-yl]benzamide]
≥ 80%: percent control (mortality, anti-feedant effect or growth inhibition) at 200 ppm (Spodoptera littoralis) | percent effect (mortality or growth inhibition) at 200 ppm (Plutella xylostella) | percent effect (mortality or growth inhibition) at 200 ppm (Diabrotica Balteata) | mortality at 200 ppm (Thrips tabaci) | mortality at 200 ppm (Tetranychus urticae) | mortality at 200 ppm (Myzus persicae)

Cc1cc(C2=NO[C@@](c3cc(Cl)c(F)c(Cl)c3)(C(F)(F)F)C2)ccc1C(=O)NC1CC(Oc2ccc(Cl)cc2)=NO1 (stereo partly drawn) [Compound A108, N-[3-(4-chlorophenoxy)-4,5-dihydroisoxazol-5-yl]-4-[(5S)-5-(3,5-dichloro-4-fluoro-phenyl)-5-(trifluoromethyl)-4H-isoxazol-3-yl]-2-methyl-benzamide]
≥ 80%: percent control (mortality, anti-feedant effect or growth inhibition) at 200 ppm (Spodoptera littoralis) | percent effect (mortality or growth inhibition) at 200 ppm (Plutella xylostella) | percent effect (mortality or growth inhibition) at 200 ppm (Diabrotica Balteata) | mortality at 200 ppm (Thrips tabaci) | mortality at 200 ppm (Tetranychus urticae) | mortality at 200 ppm (Myzus persicae)

Cc1cc(C2=NO[C@@](c3cc(Cl)c(F)c(Cl)c3)(C(F)(F)F)C2)ccc1C(=O)NC1CC(OCC[Si](C)(C)C)=NO1 (stereo partly drawn) [Compound A109]
≥ 80%: percent control (mortality, anti-feedant effect or growth inhibition) at 200 ppm (Spodoptera littoralis) | percent effect (mortality or growth inhibition) at 200 ppm (Plutella xylostella) | percent effect (mortality or growth inhibition) at 200 ppm (Diabrotica Balteata) | mortality at 200 ppm (Thrips tabaci) | mortality at 200 ppm (Tetranychus urticae) | mortality at 200 ppm (Myzus persicae)

Cc1cc(C2=NO[C@@](c3cc(Cl)c(Cl)c(Cl)c3)(C(F)(F)F)C2)ccc1C(=O)NC1CC(OCc2ccccc2)=NO1 (stereo partly drawn) [Compound A110, N-(3-benzyloxy-4,5-dihydroisoxazol-5-yl)-2-methyl-4-[(5S)-5-(3,4,5-trichlorophenyl)-5-(trifluoromethyl)-4H-isoxazol-3-yl]benzamide]
≥ 80%: percent control (mortality, anti-feedant effect or growth inhibition) at 200 ppm (Spodoptera littoralis) | percent effect (mortality or growth inhibition) at 200 ppm (Plutella xylostella) | percent effect (mortality or growth inhibition) at 200 ppm (Diabrotica Balteata) | mortality at 200 ppm (Thrips tabaci) | mortality at 200 ppm (Tetranychus urticae) | mortality at 200 ppm (Myzus persicae)

Cc1cc(C2=NO[C@@](c3cc(Cl)c(Cl)c(Cl)c3)(C(F)(F)F)C2)ccc1C(=O)NC1CC(OCC2CCC2)=NO1 (stereo partly drawn) [Compound A111, N-[3-(cyclobutylmethoxy)-4,5-dihydroisoxazol-5-yl]-2-methyl-4-[(5S)-5-(3,4,5-trichlorophenyl)-5-(trifluoromethyl)-4H-isoxazol-3-yl]benzamide]
≥ 80%: percent control (mortality, anti-feedant effect or growth inhibition) at 200 ppm (Spodoptera littoralis) | percent effect (mortality or growth inhibition) at 200 ppm (Plutella xylostella) | percent effect (mortality or growth inhibition) at 200 ppm (Diabrotica Balteata) | mortality at 200 ppm (Thrips tabaci) | mortality at 200 ppm (Tetranychus urticae) | mortality at 200 ppm (Myzus persicae)

Cc1cc(C2=NO[C@@](c3cc(Cl)c(Cl)c(Cl)c3)(C(F)(F)F)C2)ccc1C(=O)NC1CC(OCc2ccccn2)=NO1 (stereo partly drawn) [Compound A112, 2-methyl-N-[3-(2-pyridylmethoxy)-4,5-dihydroisoxazol-5-yl]-4-[(5S)-5-(3,4,5-trichlorophenyl)-5-(trifluoromethyl)-4H-isoxazol-3-yl]benzamide]
≥ 80%: percent control (mortality, anti-feedant effect or growth inhibition) at 200 ppm (Spodoptera littoralis) | percent effect (mortality or growth inhibition) at 200 ppm (Plutella xylostella) | percent effect (mortality or growth inhibition) at 200 ppm (Diabrotica Balteata) | mortality at 200 ppm (Thrips tabaci) | mortality at 200 ppm (Tetranychus urticae) | mortality at 200 ppm (Myzus persicae)

C#CCCCOC1=NOC(NC(=O)c2ccc(C3=NO[C@@](c4cc(Cl)c(Cl)c(Cl)c4)(C(F)(F)F)C3)cc2C)C1 (stereo partly drawn) [Compound A113, 2-methyl-N-(3-pent-4-ynoxy-4,5-dihydroisoxazol-5-yl)-4-[(5S)-5-(3,4,5-trichlorophenyl)-5-(trifluoromethyl)-4H-isoxazol-3-yl]benzamide]
≥ 80%: percent control (mortality, anti-feedant effect or growth inhibition) at 200 ppm (Spodoptera littoralis) | percent effect (mortality or growth inhibition) at 200 ppm (Plutella xylostella) | percent effect (mortality or growth inhibition) at 200 ppm (Diabrotica Balteata) | mortality at 200 ppm (Thrips tabaci) | mortality at 200 ppm (Tetranychus urticae) | mortality at 200 ppm (Myzus persicae)

CCNC(=O)COC1=NOC(NC(=O)c2ccc(C3=NO[C@@](c4cc(Cl)c(Cl)c(Cl)c4)(C(F)(F)F)C3)cc2C)C1 (stereo partly drawn) [Compound A115, N-[3-[2-(ethylamino)-2-oxo-ethoxy]-4,5-dihydroisoxazol-5-yl]-2-methyl-4-[(5S)-5-(3,4,5-trichlorophenyl)-5-(trifluoromethyl)-4H-isoxazol-3-yl]benzamide]
≥ 80%: percent control (mortality, anti-feedant effect or growth inhibition) at 200 ppm (Spodoptera littoralis) | percent effect (mortality or growth inhibition) at 200 ppm (Plutella xylostella) | percent effect (mortality or growth inhibition) at 200 ppm (Diabrotica Balteata) | mortality at 200 ppm (Thrips tabaci) | mortality at 200 ppm (Tetranychus urticae) | mortality at 200 ppm (Myzus persicae)
